Values quoted from earlier work as cited in patent publication US20250214928A1 (priority 2023, published 2025).

Assays:
[1] = system: kainic acid-induced status epilepticus model; details: mouse study, ref. [5]
[2] = system: tumor-specific antigens (CEA, CA 19/9, CA 125, prostate-specific antigen); details: meta-analysis of phase I/II trials, over 400 patients, dose-dependent, ref. [9]

CNC(=O)[C@@H](NC(=O)[C@H](CC(C)C)[C@H](O)C(=O)NO)C(C)(C)C [marimastat, (2R,3S)-N-1-((S)-3,3-dimethyl-1-methylamino-1-oxobutan-2-yl)-N-4,3-dihydroxy-2-isobutylsuccinamide]
duration of seizures [1]: reduced
number of seizures [1]: reduced
growth indicators of tumor-specific antigens (all four) [2]: significantly reduced
